# Measurements published in patent US9233961B2, “Compounds and compositions for the treatment of parasitic diseases” (Novartis AG, priority 2013, dated 2016).
# Where two headings read alike, the source gives them in different places.
# Assays:
# [1] = tested on: Leishmania donovani axenic amastigote parasites; experiment: Leishmania donovani axenic amastigote proliferation assay; format: cell-based; conditions: read-out: L. donovani amastigotes EC50
# Method in brief: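 EC50 values come from CellTiter-Glo luminescence after 2-day compound exposure of axenic amastigotes (9600 per well) at 37 °C, 5% CO2. Medium: RPMI 1640, 20% heat-inactivated FBS, folic acid, adenosine, D-glucose, 25 mM MES, adjusted to pH 5.5.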
# [2] = tested on: L. donovani HU3 strain in mouse peritoneal macrophages; experiment: Assay for proliferation of Leishmania parasites in mouse peritoneal macrophages; format: cell-based, Leishmania donovani; conditions: Leishmania donovani, Peritoneal macrophage
# Method in brief: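 EC50 derives from counting SYBR Green-stained parasite nuclei by high-content imaging after 5 days' compound exposure. Host cells were uninfected BALB/c peritoneal macrophages, infected for 24 h before dosing with spleen-derived L. donovani HU3 parasites from mice infected 9–11 weeks.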
# [3] = tested on: Trypanosoma brucei Lister 427 strain bloodstream form; experiment: Assay for proliferation of kinetoplastid parasite Trypanosoma brucei; format: cell-based; conditions: read-out: T. brucei EC50
# Description: Assay for Proliferation of Kinetoplastid Parasite Trypanosoma brucei.
# The proliferation is quantified by the addition of Cell Titer Glo (Promega®) a luminescent cell viability assay that measures the number of viable cells in culture based on the quantification of cellular ATP amount, which is an indicator of metabolically active cells.
# The following assay illustrates the invention without in any way limiting the scope of the invention. This parasite proliferation assay measures the increase in parasite growth using an assay that measures ATP activity, Cell Titer Glo®.
# Trypanosoma brucei Lister 427 strain is grown in HMI-9 Trypanosome media for T. brucei bloodstream form. 30 μl of HMI-9 media is dispensed into 384 well assay plates. 200 nl of compounds of the invention (in DMSO), including anti-trypanosome controls (Pentamidine and suramin), are then transferred into the assay plates, as well as DMSO alone to serve as a negative control for inhibition. Then 25 μl of a suspension of T. brucei culture in HMI-9 media is dispensed into the assay plates. The final concentration of parasites in culture corresponds to 1.7% of 0.5 uM ATP activity with Cell Titer Glo® in HMI-9 media. The plates are placed in a 37° C. incubator for 48 hours in an atmospheric environment containing 5% CO2. 40 μl of Cell Titer Glo® is dispensed into the plates. The plates are then read for luminescence. The percentage inhibition of 50%, EC50, is calculated for each compound.
# [4] = read-out: L. donavani Macrophage EC50
# [5] = Lister 427 bloodstream form, 48 hours
Structure (SMILES),EC50 ([1]; axenic amastigotes in vitro) [µM],"EC50 [2, 4] [µM]","EC50 [3, 5] [µM]",EC50 [1] [µM],EC50 ([3]; 48 h) [µM],EC50 ([2]; read-out: L. donavani Macrophage EC50 (μM)) [µM]
"Cc1cnc2nc(-c3cc(NC(=O)NC4CCC4)ccc3Cl)[nH]c2c1 [Example 247, 1-(4-Chloro-3-{6-methyl-1H-imidazo[4,5-b]pyridin-2-yl}phenyl)-3-cyclobutylurea]",> 25,26.9,6.4,,,
CS(=O)(=O)c1ccc(-c2cnc3nc(-c4cc(NC(=O)c5ccco5)ccc4Cl)[nH]c3c2)cc1 [Compound 46],0.5,1.33,0.037,,,
"NCc1cnc2nc(-c3cc(NC(=O)c4ccco4)ccc3Cl)[nH]c2c1 [Example 352, N-{3-[6-(aminomethyl)-1H-imidazo[4,5-b]pyridin-2-yl]-4-chlorophenyl}furan-2-carboxamide]",0.253,49.5,0.45,,,
COc1ccccc1C(=O)Nc1ccc(Cl)c(-c2nc3ncc(C)cc3[nH]2)c1 [Compound 108],> 25,16.3,8.3,,,
Cc1cnc2nc(-c3cc(NC(=O)c4cnco4)ccc3Cl)[nH]c2c1 [Compound 177],2.28,> 50,1.66,,,
Cc1cnc2nc(-c3cc(N4CCOCC4)ccc3Cl)[nH]c2c1 [Compound 257],> 25,> 50,> 25,,,
Cc1cnc2nc(-c3cc(NS(=O)(=O)c4cccs4)ccc3Cl)[nH]c2c1 [Compound 251],> 25,> 50,> 18.2,,,
Cc1cnc2nc(-c3cc(NC(=O)OCC(F)(F)F)ccc3Cl)[nH]c2c1 [Compound 225],> 25,> 50,> 25,,,
Cc1cnc2nc(-c3cc(NC(=O)C(c4ccccc4)C(C)C)ccc3Cl)[nH]c2c1 (stereo not drawn) [Compound 160],> 24.6,20.3,12.4,,,
COC(=O)Nc1ccc(Cl)c(-c2nc3ncc(C)cc3[nH]2)c1 [Compound 224],18.7,11.1,2.61,,,
Cc1cnc2nc(-c3cc(NC(=O)Cn4ccnc4)ccc3Cl)[nH]c2c1 [Compound 197],> 25,> 50,> 22.3,,,
Cc1cnc2nc(-c3cc(NC(=O)C(C)(C)NC(=O)OC(C)(C)C)ccc3Cl)[nH]c2c1 [Compound 111],> 25,> 50,> 13.6,,,
Cc1cnc2nc(-c3cc(NC(=O)c4nnc(C)o4)ccc3Cl)[nH]c2c1 [Compound 106],> 25,> 50,13.3,,,
"Cc1cnc2nc(-c3cc(NCc4ccco4)ccc3Cl)[nH]c2c1 [Example 266, 4-chloro-N-(furan-2-ylmethyl)-3-{6-methyl-1H-imidazo[4,5-b]pyridin-2-yl}aniline]",,> 40.5,,> 25,> 25,
COc1ccnc(C(=O)Nc2ccc(Cl)c(-c3nc4ncc(C)cc4[nH]3)c2)c1 [Compound 173],> 25,18.1,> 13.8,,,
COc1ccc(C(C)C(=O)Nc2ccc(Cl)c(-c3nc4ncc(C)cc4[nH]3)c2)cc1 (stereo not drawn) [Compound 165],> 24.5,23.1,> 11.7,,,
Cc1cnc2nc(-c3cc(Nc4ccc(-n5cncn5)nc4)ccc3Cl)[nH]c2c1 [Compound 258],> 25,> 50,> 15.4,,,
COC(=O)Nc1ccc(-c2cnc3nc(-c4cc(NC(=O)c5ccco5)ccc4Cl)oc3c2)cc1 [Compound 417],0.212,,0.056,,,0.49
Cc1cnc2nc(-c3cc(Nc4cccc5c4CCN(S(C)(=O)=O)C5)ccc3Cl)[nH]c2c1 [Compound 261],> 25,> 50,15.9,,,
Cc1cnc2nc(-c3cc(NC(=O)CCCN(C)C)ccc3Cl)[nH]c2c1 [Compound 159],> 25,> 50,> 12.2,,,
Cc1cnc2nc(-c3cc(NC(=O)c4cccnc4)ccc3Cl)[nH]c2c1 [Compound 208],8.7,> 32.7,2.48,,,
Cc1cnc2nc(-c3cc(NC(=O)c4ccnn4C)ccc3Cl)[nH]c2c1 [Compound 213],> 25,> 48,> 25,,,
Cc1cnc2nc(-c3cc(NC(=O)C4(C)CN(C(=O)OC(C)(C)C)C4)ccc3Cl)[nH]c2c1 [Compound 133],> 25,> 50,> 25,,,
